± gives the expanded uncertainty stated by the source.
Legend:
[1] = 298.15 K, 101 kPa, Liquid; for speed of sound: Sing-around technique in a fixed-path interferometer
[2] = mn = molality of the nth substance listed, in mol/kg; details: 298.15 K, 101 kPa, Liquid; for speed of sound: Sing-around technique in a fixed-path interferometer

OCCO [1,2-ethanediol]
[1]
Details	mass density [kg/m3]	speed of sound [m/s]
–	1109.41 ± 0.69	1656.1 ± 1.7

OCCO [1,2-ethanediol] + O
[2]
Details	mass density [kg/m3]	speed of sound [m/s]
m2 = 0	1109.41 ± 0.69	1656.1 ± 1.7
m2 = 0.1028	1109.35 ± 0.69	1656.9 ± 1.7
m2 = 0.2175	1109.25 ± 0.69	1657.7 ± 1.7
m2 = 0.3155	1109.22 ± 0.69	1658.6 ± 1.7
m2 = 0.3759	1109.06 ± 0.69	1658.7 ± 1.7
m2 = 0.7031	1108.82 ± 0.68	1660.5 ± 1.7
m2 = 0.808	1108.62 ± 0.68	1661.4 ± 1.7
m2 = 0.9282	1108.2 ± 0.68	1661.8 ± 1.7
m2 = 1.035	1108.14 ± 0.68	1662.3 ± 1.7
m2 = 1.132	1108.1 ± 0.68	1662.7 ± 1.7

CC(O)CO (stereo not given) [1,2-propanediol]
[1]
Details	mass density [kg/m3]	speed of sound [m/s]
–	1032.87 ± 0.23	1510.6 ± 1.4

CC(O)CO (stereo not given) [1,2-propanediol] + O
[2]
Details	mass density [kg/m3]	speed of sound [m/s]
m2 = 0	1032.87 ± 0.23	1510.6 ± 1.4
m2 = 0.2187	1033.12 ± 0.23	1512.9 ± 1.4
m2 = 0.5592	1033.53 ± 0.24	1516.4 ± 1.4
m2 = 0.6141	1033.58 ± 0.24	1516.5 ± 1.4
m2 = 0.7341	1033.67 ± 0.24	1517.5 ± 1.4
m2 = 0.8421	1033.73 ± 0.24	1519.4 ± 1.4
m2 = 0.9215	1033.86 ± 0.24	1519.9 ± 1.4
m2 = 1.023	1033.94 ± 0.24	1521.5 ± 1.4

CC1COC(=O)O1 (stereo not given) [4-methyl-1,3-dioxolan-2-one]
[1]
Details	mass density [kg/m3]	speed of sound [m/s]
–	1198.64 ± 0.94	1443.4 ± 1.6

CC1COC(=O)O1 (stereo not given) [4-methyl-1,3-dioxolan-2-one] + O
[2]
Details	mass density [kg/m3]	speed of sound [m/s]
m2 = 0	1198.64 ± 0.94	1443.4 ± 1.6
m2 = 0.2538	1197.46 ± 0.93	1444.9 ± 1.6
m2 = 0.2969	1197.24 ± 0.93	1445.2 ± 1.6
m2 = 0.3438	1196.97 ± 0.93	1445.4 ± 1.6
m2 = 0.3895	1196.74 ± 0.93	1445.6 ± 1.6
m2 = 0.4879	1196.22 ± 0.93	1446 ± 1.6
m2 = 0.5765	1195.77 ± 0.93	1446.6 ± 1.6
m2 = 0.6743	1195.27 ± 0.93	1447.2 ± 1.6
m2 = 0.7678	1194.8 ± 0.92	1447.6 ± 1.6

— the NIST ThermoML archive (doi:10.1016/j.jct.2007.05.010)
